From patent US20080161389A1, “METHOD OF TREATING OCULAR HYPERTENSION AND INTESTINAL DISORDERS BY USING DIANHYDROHEXITE MONONITRATE DERIVATIVES” (LACER, S.A., priority 2006, published 2008)

What was measured:
[1] = test system: E. coli; test: Bacterial translocation (E. coli) in indomethacin-induced intestinal inflammation; assay type: in vivo; conditions: mice; for Bacterial translocation E. coli: number of positive cultures / total number of samples in group, mesenteric lymph nodes, 30 mg/kg orally
Procedure: (§1) Intestinal inflammation were induced by administration of two subcutaneous injections of 7.5 mg/kg indomethacin, as previously described Porras M., Martin M T., Soler M. and Vergara P., “Intestinal motor disorders associated with cyclical bacterial overgrowth in a rat model of enteritis”. Am. J. Physiol. Gastrointest. Liver Physiol. […] Am. J. Physiol. Gastrointest. Liver Physiol. (2006), 290:G423-G430.
(§2) Once the intestinal inflammation has been induced, one group of mice were treated with 30 mg of the compound 2-acetylthioisosorbide-5-mononitrate per kg of body weight, being dissolved this compound in water and administered orally. For comparative data, the compound isosorbide-5-mononitrate (IS-5-MN), structurally similar to 2-acetylthioisosorbide-5-mononitrate, was also administered to another group of mice.
(§3) Myeloperoxidase (MPO) activity was measured as an inflammation index in homogenized tissue samples after centrifugation using a specific ELISA kit (HyCult biotechnology, Uden, The Netherlands). In addition, since the barrier function of the intestinal mucus is deteriorated when the epithelium is inflamed and, as a consequence, the exposed bacteria cross the membrane and enter in the blood current, bacterial translocation was measured by detection of viable enteric bacteria in mesenteric lymph nodes as described by [M Mainous M R., Tso P., Berg R. D. and Deitch E. A., Arch Surg (1991) 126:33-37] as additional measure of inflammation degree.
(§4) Studies of the route, magnitude, and time course of bacterial translocation in a model of systemic inflammation were achieved as describe in Arch Surg 126:33-37, 1991. Bacterial translocation was expressed as the number of positive cultures with respect to the total number of samples in each group and motor activity was measured as the contracting activity expressed as the total number of spontaneous contractions recorded at duodenum per minute.

[2] = test system: Enterococcus sp; test: Bacterial translocation (Enterococcus sp) in indomethacin-induced intestinal inflammation; assay type: in vivo; conditions: number of positive cultures / total number of samples in group, mesenteric lymph nodes, mice, 30 mg/kg orally
Procedure: as §1
Once the intestinal inflammation has been induced, one group of mice were treated with 30 mg of the compound 2-acetylthioisosorbide-5-mononitrate per kg of body weight, being dissolved this compound in water and administered orally. […]
as §3, with “degree. […]” for “degree.”

[3] = test system: Myeloperoxidase (MPO); test: Myeloperoxidase (MPO) activity as inflammation index in homogenized tissue samples (ELISA), indomethacin-induced intestinal inflammation; assay type: in vivo, mice; conditions: for MPO activity: homogenized tissue samples, mice, indomethacin-induced intestinal inflammation, 30 mg/kg orally
Procedure: as §1, §2, §3

[4] = test system: duodenum; test: Motor activity: spontaneous contractions recorded at duodenum, indomethacin-induced intestinal inflammation; assay type: in vivo; conditions: spontaneous contractions recorded at duodenum per minute, mice, 30 mg/kg orally
Procedure: as §1, §2, §4

[5] = test system: Alfa-Chymotrypsin-Induced Glaucoma; test: Intraocular pressure in alfa-chymotrypsin-induced glaucoma; assay type: in vivo, rabbits; conditions: for intraocular pressure 0 hr: 0 h after 3 drops instillation; for intraocular pressure 0 hr / intraocular pressure 1 hr / intraocular pressure 2 hr: rabbits with alpha-chymotrypsin-induced glaucoma; for reduction of intraocular pressure (in words): 0.05%, similar to conventional compound at 10-fold lower concentration; for intraocular pressure 1 hr: 1 h after 3 drops instillation; for intraocular pressure 2 hr: 2 h after 3 drops instillation
Procedure: The method used was that described by Gabriele Campana, Claudio Bucolo, Giovanna Murari and Santi Spampinato in Pharmacol. Exp Therap Vol. 303, Issue 3, 1086-1094, December 2002
Animals were injected with intra muscular injection of dexamethasone at the dose rate of 10 mg/Kg body weight, to avoid immediate inflammation. Animals were anesthetized with ketamine (50 mg/kg IV) in combination with Dizepam.
Xylocaine (4%) was used for local anesthesia topically. A cannula attached to reservoir was inserted into the anterior chamber with the help of a 30 gauge needle to provide a hydrostatic pressure of 25 mmHg during injection of alpha-chymotrypsin. Then a second appropriately shaped 30 gauge needle was introduced near the pupil. Freshly prepared 150 units of alpha chymotrypsin prepared in 0.1 ml of sterile saline was irrigated through the cannula into the posterior chamber. Care was taken to prevent the contact of alpha chymotrypsin with corneal stroma. Both cannulas were carefully removed without significant loss of aqueous humor. Immediately after surgery the eye treated with Sofracort (Corticosteroid) to reduce the chances of fungal or microbial infection.
All the animals were kept under observation for 5 days and after these five days the intraocular pressure (IOP) was measured daily with a Schiontz type indentation tonometer using 5.5 gm weights and by compilation of readings the maximum period required to achieve a stable increase in IOP was determined. […] IOP was measured after 15 days for 3 consecutive days, every morning (at same time) to assure stable IOP.
All the animals were closely observed for the development of glaucoma. Thirty animals showing the symptoms of glaucoma and with the intra ocular pressure more than 30 mmHg were selected for the present investigation.
Compounds 2-acetylthioisosorbide-5-mononitrate and 2-[(R)-methylsulfinyl]isosorbide-5-mononitrate (0.05%) were administered to two different groups of rabbits at a concentration of 0.05% by weight [0.05g in 100 mL of saline serum] by 3 drops instillation. For comparative data, the compound Timolol (Timoftol®) widely used for the treatment of glaucoma, was also administered to another group of rabbits at a concentration of 0.5% by weight.
The intraocular pressure measurements are included in the table 2 in mm Hg taken at 0, 1 and 2 h after 3 drops instillation.

## CC(=O)S[C@H]1CO[C@H]2[C@@H]1OC[C@H]2O[N+](=O)[O-] [2-acetylthioisosorbide-5-mononitrate, 2-acetylthio-isosorbide-5-mononitrate]
[1]
  bacterial translocation (in words): also reduced
  Bacterial translocation E. coli: 2/6
[2]
  Bacterial translocation Enterococcus sp: 1/6
[3]; compared to a structurally similar compound (IS-5-MN)
  reduction of MTO activity (in words): significant reduction
[3]
  MPO activity: 10 ± 2 ng/mL
[4]
  Contractions/min: 0.2 ± 0.1 Contractions/min
[5]
  intraocular pressure 0 hr: 34.33 ± 0.68 mm Hg
  reduction of intraocular pressure (in words): significantly reduce the intraocular pressure
  intraocular pressure 1 hr: 24.72 ± 0.47 mm Hg
  intraocular pressure 2 hr: 23.86 ± 0.32 mm Hg

## C[S@@+]([O-])C1COC2C(O[N+](=O)[O-])COC21 (stereo partly drawn) [2-[(R)-methylsulfinyl]isosorbide-5-mononitrate]
[5]
  intraocular pressure 0 hr: 33.87 ± 0.38 mm Hg
  reduction of intraocular pressure (in words): significantly reduce the intraocular pressure
  intraocular pressure 1 hr: 23.51 ± 0.24 mm Hg
  intraocular pressure 2 hr: 22.77 ± 0.19 mm Hg

## CC(C)(C)NC[C@H](O)COc1nsnc1N1CCOCC1 [Timolol, reference compound]
[5]
  intraocular pressure 0 hr: 34.45 ± 0.58 mm Hg
  intraocular pressure 1 hr: 24.77 ± 0.26 mm Hg
  intraocular pressure 2 hr: 24.54 ± 0.26 mm Hg

## O=[N+]([O-])O[C@@H]1CO[C@H]2[C@@H]1OC[C@@H]2O [IS-5-MN, isosorbide-5-mononitrate, reference compound]
[1]
  Bacterial translocation E. coli: 3/6
[2]
  Bacterial translocation Enterococcus sp: 3/6
[3]
  MPO activity: 19 ± 4 ng/mL
[4]
  Contractions/min: 0.5 ± 0.1 Contractions/min
